According to the supplement of paper PMC10477900:
Counter-ions that a name gives are not always drawn.

How the values were obtained:
HCT116 [1] = test: viability inhibition vs untreated; higher = more cytotoxic; settings: 72 h
HCT116 [2] = settings: 72 h
Method: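 HCT116 control and MTA1-KO (CRISPR) HCT116 cells were seeded in 384-well plates (800 cells/well), treated 16 h later with 237 metabolism-related anticancer drugs at five doses (10 uM, 2 uM, 400 nM, 80 nM, 16 nM) for 72 h, two replicates; viability by CCK8. Values are % inhibition of viability relative to untreated cells, plus fitted IC50.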

Nc1ncnc2c1ncn2[C@@H]1O[C@H](COP(=O)(O)O)[C@@H](O)[C@H]1O [Adenosine 5'-monophosphate]
viability inhibition (HCT116 [1]; genotype: MTA1-KO, 16 nM): 1.56%
viability inhibition (HCT116 [1]; genotype: MTA1-KO, 80 nM): 3.02%
viability inhibition (HCT116 [1]; genotype: MTA1-KO, 400 nM): 2%
viability inhibition (HCT116 [1]; genotype: MTA1-KO, 2000 nM): -3.03%
viability inhibition (HCT116 [1]; genotype: MTA1-KO, 10000 nM): 4.43%
viability inhibition (HCT116 [1]; genotype: control, 16 nM): 9.4%
viability inhibition (HCT116 [1]; genotype: control, 80 nM): 14.9%
viability inhibition (HCT116 [1]; genotype: control, 400 nM): 9.53%
viability inhibition (HCT116 [1]; genotype: control, 2000 nM): 10.4%
viability inhibition (HCT116 [1]; genotype: control, 10000 nM): 17.4%
IC50 (HCT116 [2]; genotype: MTA1-KO): > 10 µM
IC50 (HCT116 [2]; genotype: control): > 10 µM

NCCCCN=C(N)N [Agmatine sulfate salt]
viability inhibition (HCT116 [1]; genotype: MTA1-KO, 16 nM): -2.78%
viability inhibition (HCT116 [1]; genotype: MTA1-KO, 80 nM): 3.53%
viability inhibition (HCT116 [1]; genotype: MTA1-KO, 400 nM): 1.54%
viability inhibition (HCT116 [1]; genotype: MTA1-KO, 2000 nM): 7.76%
viability inhibition (HCT116 [1]; genotype: MTA1-KO, 10000 nM): 55.4%
viability inhibition (HCT116 [1]; genotype: control, 16 nM): 11.2%
viability inhibition (HCT116 [1]; genotype: control, 80 nM): 9.12%
viability inhibition (HCT116 [1]; genotype: control, 400 nM): 22.6%
viability inhibition (HCT116 [1]; genotype: control, 2000 nM): 28.6%
viability inhibition (HCT116 [1]; genotype: control, 10000 nM): 22.5%
IC50 (HCT116 [2]; genotype: MTA1-KO): 8.87 µM
IC50 (HCT116 [2]; genotype: control): > 10 µM

NN=C(N)N [Aminoguanidine hydrochloride]
viability inhibition (HCT116 [1]; genotype: MTA1-KO, 16 nM): -22%
viability inhibition (HCT116 [1]; genotype: MTA1-KO, 80 nM): -27.7%
viability inhibition (HCT116 [1]; genotype: MTA1-KO, 400 nM): -23.9%
viability inhibition (HCT116 [1]; genotype: MTA1-KO, 2000 nM): -10.8%
viability inhibition (HCT116 [1]; genotype: MTA1-KO, 10000 nM): -13.7%
viability inhibition (HCT116 [1]; genotype: control, 16 nM): -13.6%
viability inhibition (HCT116 [1]; genotype: control, 80 nM): -11.1%
viability inhibition (HCT116 [1]; genotype: control, 400 nM): -12.3%
viability inhibition (HCT116 [1]; genotype: control, 2000 nM): -13.1%
viability inhibition (HCT116 [1]; genotype: control, 10000 nM): -5.39%
IC50 (HCT116 [2]; genotype: MTA1-KO): > 10 µM
IC50 (HCT116 [2]; genotype: control): > 10 µM

O=C1c2cccc(O)c2C(=O)c2c(O)cccc21 [Antrapurol]
viability inhibition (HCT116 [1]; genotype: MTA1-KO, 16 nM): 7.43%
viability inhibition (HCT116 [1]; genotype: MTA1-KO, 80 nM): -5.62%
viability inhibition (HCT116 [1]; genotype: MTA1-KO, 400 nM): -8.24%
viability inhibition (HCT116 [1]; genotype: MTA1-KO, 2000 nM): -0.432%
viability inhibition (HCT116 [1]; genotype: MTA1-KO, 10000 nM): 0.85%
viability inhibition (HCT116 [1]; genotype: control, 16 nM): 1.11%
viability inhibition (HCT116 [1]; genotype: control, 80 nM): -7.37%
viability inhibition (HCT116 [1]; genotype: control, 400 nM): -11.3%
viability inhibition (HCT116 [1]; genotype: control, 2000 nM): -10.5%
viability inhibition (HCT116 [1]; genotype: control, 10000 nM): 29.6%
IC50 (HCT116 [2]; genotype: MTA1-KO): > 10 µM
IC50 (HCT116 [2]; genotype: control): > 10 µM

O=c1cc(-c2ccc(O)cc2)oc2cc(O)cc(O)c12 [Apigenin]
viability inhibition (HCT116 [1]; genotype: MTA1-KO, 16 nM): -5.33%
viability inhibition (HCT116 [1]; genotype: MTA1-KO, 80 nM): -2.46%
viability inhibition (HCT116 [1]; genotype: MTA1-KO, 400 nM): -0.547%
viability inhibition (HCT116 [1]; genotype: MTA1-KO, 2000 nM): -8.58%
viability inhibition (HCT116 [1]; genotype: MTA1-KO, 10000 nM): 12.7%
viability inhibition (HCT116 [1]; genotype: control, 16 nM): 20.8%
viability inhibition (HCT116 [1]; genotype: control, 80 nM): 0.478%
viability inhibition (HCT116 [1]; genotype: control, 400 nM): 4.05%
viability inhibition (HCT116 [1]; genotype: control, 2000 nM): 4.56%
viability inhibition (HCT116 [1]; genotype: control, 10000 nM): 44.8%
IC50 (HCT116 [2]; genotype: MTA1-KO): > 10 µM
IC50 (HCT116 [2]; genotype: control): > 10 µM

Cc1c(CN2CCN(C(=O)[C@H](C)O)CC2)sc2c(N3CCOCC3)nc(-c3cnc(N)nc3)nc12 [Apitolisib]
viability inhibition (HCT116 [1]; genotype: MTA1-KO, 16 nM): -11.5%
viability inhibition (HCT116 [1]; genotype: MTA1-KO, 80 nM): 2.04%
viability inhibition (HCT116 [1]; genotype: MTA1-KO, 400 nM): 38.8%
viability inhibition (HCT116 [1]; genotype: MTA1-KO, 2000 nM): 65.3%
viability inhibition (HCT116 [1]; genotype: MTA1-KO, 10000 nM): 82.6%
viability inhibition (HCT116 [1]; genotype: control, 16 nM): 0.365%
viability inhibition (HCT116 [1]; genotype: control, 80 nM): 0.791%
viability inhibition (HCT116 [1]; genotype: control, 400 nM): 60.6%
viability inhibition (HCT116 [1]; genotype: control, 2000 nM): 70.1%
viability inhibition (HCT116 [1]; genotype: control, 10000 nM): 80.4%
IC50 (HCT116 [2]; genotype: MTA1-KO): 0.471 µM
IC50 (HCT116 [2]; genotype: control): 0.268 µM

CC(C)c1c(C(=O)Nc2ccccc2)c(-c2ccccc2)c(-c2ccc(F)cc2)n1CC[C@@H](O)C[C@@H](O)CC(=O)O [Atorvastatin Calcium]
viability inhibition (HCT116 [1]; genotype: MTA1-KO, 16 nM): -2.27%
viability inhibition (HCT116 [1]; genotype: MTA1-KO, 80 nM): -15.2%
viability inhibition (HCT116 [1]; genotype: MTA1-KO, 400 nM): -21.3%
viability inhibition (HCT116 [1]; genotype: MTA1-KO, 2000 nM): -22.7%
viability inhibition (HCT116 [1]; genotype: MTA1-KO, 10000 nM): -6.12%
viability inhibition (HCT116 [1]; genotype: control, 16 nM): 6.18%
viability inhibition (HCT116 [1]; genotype: control, 80 nM): -8.85%
viability inhibition (HCT116 [1]; genotype: control, 400 nM): -7.43%
viability inhibition (HCT116 [1]; genotype: control, 2000 nM): -3.65%
viability inhibition (HCT116 [1]; genotype: control, 10000 nM): 17%
IC50 (HCT116 [2]; genotype: MTA1-KO): > 10 µM
IC50 (HCT116 [2]; genotype: control): > 10 µM

Cc1c(NC(=O)c2cc(C(N)=O)nc3cc(F)ccc23)c(C(F)(F)F)nn1Cc1ccc(C#N)cc1 [BAY876]
viability inhibition (HCT116 [1]; genotype: MTA1-KO, 16 nM): 50.2%
viability inhibition (HCT116 [1]; genotype: MTA1-KO, 80 nM): 73%
viability inhibition (HCT116 [1]; genotype: MTA1-KO, 400 nM): 82%
viability inhibition (HCT116 [1]; genotype: MTA1-KO, 2000 nM): 90.4%
viability inhibition (HCT116 [1]; genotype: MTA1-KO, 10000 nM): 110%
viability inhibition (HCT116 [1]; genotype: control, 16 nM): 72.8%
viability inhibition (HCT116 [1]; genotype: control, 80 nM): 89.8%
viability inhibition (HCT116 [1]; genotype: control, 400 nM): 97.7%
viability inhibition (HCT116 [1]; genotype: control, 2000 nM): 103%
viability inhibition (HCT116 [1]; genotype: control, 10000 nM): 102%
IC50 (HCT116 [2]; genotype: MTA1-KO): < 0.016 µM
IC50 (HCT116 [2]; genotype: control): < 0.016 µM

Cc1cc(-c2nc(-c3ccc(OC(F)(F)F)cc3)no2)nn1Cc1ccnc(N2CCN(C3CC3)CC2)c1 [BAY 87-2243]
viability inhibition (HCT116 [1]; genotype: MTA1-KO, 16 nM): 21%
viability inhibition (HCT116 [1]; genotype: MTA1-KO, 80 nM): 24.5%
viability inhibition (HCT116 [1]; genotype: MTA1-KO, 400 nM): 21.4%
viability inhibition (HCT116 [1]; genotype: MTA1-KO, 2000 nM): 19.2%
viability inhibition (HCT116 [1]; genotype: MTA1-KO, 10000 nM): 19.2%
viability inhibition (HCT116 [1]; genotype: control, 16 nM): 86.8%
viability inhibition (HCT116 [1]; genotype: control, 80 nM): 72.7%
viability inhibition (HCT116 [1]; genotype: control, 400 nM): 68.2%
viability inhibition (HCT116 [1]; genotype: control, 2000 nM): 67.4%
viability inhibition (HCT116 [1]; genotype: control, 10000 nM): 70.2%
IC50 (HCT116 [2]; genotype: MTA1-KO): > 10 µM
IC50 (HCT116 [2]; genotype: control): < 0.016 µM
